Reference: patent US7446195B2, “High affinity thiophene-based and furan-based kinase ligands” (Schering Corporation, priority 2005, dated 2008)

These compounds were tested against CDK-2 (Homo sapiens, UniProt P24941) (assay: CDK-2 inhibition (Table 1; fluorescence polarization displacement assay)). Conditions: inhibitory effectiveness toward CDK-2.
Format: binding
Procedure: The affinity of lead inhibitors binding to CDK-2 and CDK-2/cyclin A were determined by measuring a Ki value using a fluorescence polarization displacement assay. The deacetylated form of compound BMS-250595 was reacted with Alexa Fluor 647 to generate a compound (BMS-Alexa Fluor647) that bound to both proteins and provided a signal for fluorescence polarization displacement. Binding assays were performed in a 384 well Costar NBS coated plate. A total volume of […] contained concentrations of CDK-2 or CDK-2/cyclin A at […], respectively. The concentration of BMS-Alexa Fluor647 was 50 nM. Serial dilutions of compounds were added to 12 wells. The final buffer concentration was 10 mM Hepes, pH 7.5, 150 mM NaCl, and 1 mM DTT. Samples were incubated at room temperature for 15 minutes and then read in an Analyst HT instrument using an excitation and emission wavelength of 580 and 680 nm, respectively. The […] curve fitting tool described by Zhang et al., 2004 (Zhang R., Mayhood T., Lipari P., Wang Y., Durkin D., Syto R., Gesell J., McNemar C., and Windsor W., Analytical Biochemistry 331 (2004) 138-146)

COc1ccc(C(=O)Nc2ccc(C(=O)N3CCC(Oc4cnccn4)CC3)s2)c(C)c1 [Compound 76] and COc1ccc(NC(=O)c2ccc(C(=O)Nc3ccc(N4CCOCC4)nc3)s2)c(C)c1 [Compound 133] cannot be ordered by IC50: 1 to 40 µM for the first, at least 40 µM for the second.

O=C(Nc1ccc(-n2cncn2)c(F)c1)c1ccc(C(=O)Nc2ccccc2-c2ccccc2)s1 [Compound 77] and O=C(Nc1ccccc1)c1ccc(C(=O)Nc2ccc(-n3cncn3)cc2)s1 [Compound 89] cannot be ordered by IC50: 1 to 40 µM for the first, at least 40 µM for the second.

O=C(NCCc1cccnc1)c1ccc(C(=O)Nc2ccc(-n3cncn3)cc2)s1 [Compound 78] and O=C(NCc1cccnc1)c1ccc(C(=O)Nc2ccc(-n3cncn3)cc2)s1 [Compound 99] cannot be ordered by IC50: 1 to 40 µM for the first, at least 40 µM for the second.

COc1ccc(NC(=O)c2ccc(C(=O)Nc3ccc(-n4cncn4)cc3)s2)c(C(=O)O)c1 [Compound 79] and COc1ccc(NC(=O)c2ccc(C(=O)Nc3ccc(-n4cncn4)cc3)s2)cc1F [Compound 149] cannot be ordered by IC50: 1 to 40 µM for the first, at least 40 µM for the second.

O=C(Nc1ccc(-n2cncn2)cc1)c1ccc(C(=O)NC2CC2)s1 [Compound 80] and O=C(Nc1ccc(-n2cncn2)cc1)c1ccc(C(=O)NC2CCC2)s1 [Compound 82] cannot be ordered by IC50: at least 40 µM for the first, at least 40 µM for the second.

CC(C)NC(=O)c1ccc(C(=O)Nc2ccc(-n3cncn3)cc2)s1 [Compound 81] and COC[C@H](C)NC(=O)c1ccc(C(=O)Nc2ccc(-n3cncn3)cc2)s1 [Compound 88] cannot be ordered by IC50: at least 40 µM for the first, at least 40 µM for the second.

CC(C)CNC(=O)c1ccc(C(=O)Nc2ccc(-n3cncn3)cc2)s1 [Compound 83] and C[C@H](O)CNC(=O)c1ccc(C(=O)Nc2ccc(-n3cncn3)cc2)s1 [Compound 135] cannot be ordered by IC50: at least 40 µM for the first, at least 40 µM for the second.

O=C(Nc1ccc(-n2cncn2)cc1)c1ccc(C(=O)N2CCCCC2)s1 [Compound 84] and O=C(Nc1ccc(-n2cncn2)cc1)c1ccc(C(=O)N2CCOCC2)s1 [Compound 85] cannot be ordered by IC50: at least 40 µM for the first, at least 40 µM for the second.

CCCCN(C)C(=O)c1ccc(C(=O)Nc2ccc(-n3cncn3)cc2)s1 [Compound 86] and CN(C)CCCNC(=O)c1ccc(C(=O)Nc2ccc(-n3cncn3)cc2)s1 [Compound 140] cannot be ordered by IC50: at least 40 µM for the first, at least 40 µM for the second.

CN(C)CCNC(=O)c1ccc(C(=O)Nc2ccc(-n3cncn3)cc2)s1 [Compound 87] and CC(CN(C)C)NC(=O)c1ccc(C(=O)Nc2ccc(-n3cncn3)cc2)s1 (stereo not shown) [Compound 95] cannot be ordered by IC50: at least 40 µM for the first, at least 40 µM for the second.

O=C(Nc1ccc(-n2cncn2)cc1)c1ccc(C(=O)Nc2ccccn2)s1 [Compound 90] and O=C(NCc1ccccn1)c1ccc(C(=O)Nc2ccc(-n3cncn3)cc2)s1 [Compound 97] cannot be ordered by IC50: at least 40 µM for the first, at least 40 µM for the second.

O=C(Nc1ccc(-n2cncn2)cc1)c1ccc(C(=O)NC2CCCCC2)s1 [Compound 91] and C[C@@H](NC(=O)c1ccc(C(=O)Nc2ccc(-n3cncn3)cc2)s1)C1CCCCC1 [Compound 112] cannot be ordered by IC50: at least 40 µM for the first, at least 40 µM for the second.

O=C(Nc1ccc(-n2cncn2)cc1)c1ccc(C(=O)Nc2nccs2)s1 [Compound 92] and Cc1ccnc(NC(=O)c2ccc(C(=O)Nc3ccc(-n4cncn4)cc3)s2)c1 [Compound 100] cannot be ordered by IC50: at least 40 µM for the first, at least 40 µM for the second.

O=C(NC[C@H]1CCCO1)c1ccc(C(=O)Nc2ccc(-n3cncn3)cc2)s1 [Compound 93] and O=C(NC[C@@H]1CCCO1)c1ccc(C(=O)Nc2ccc(-n3cncn3)cc2)s1 [Compound 94] cannot be ordered by IC50: at least 40 µM for the first, at least 40 µM for the second.

CN(C(=O)c1ccc(C(=O)Nc2ccc(-n3cncn3)cc2)s1)c1ccccc1 [Compound 96] and CN(Cc1ccccc1)C(=O)c1ccc(C(=O)Nc2ccc(-n3cncn3)cc2)s1 [Compound 107] cannot be ordered by IC50: at least 40 µM for the first, at least 40 µM for the second.

O=C(NCc1ccncc1)c1ccc(C(=O)Nc2ccc(-n3cncn3)cc2)s1 [Compound 98] and O=C(NCCc1ccccc1)c1ccc(C(=O)Nc2ccc(-n3cncn3)cc2)s1 [Compound 108] cannot be ordered by IC50: at least 40 µM for the first, at least 40 µM for the second.

Cc1cccc(NC(=O)c2ccc(C(=O)Nc3ccc(-n4cncn4)cc3)s2)n1 [Compound 101] and Cc1cc(C)nc(NC(=O)c2ccc(C(=O)Nc3ccc(-n4cncn4)cc3)s2)c1 [Compound 109] cannot be ordered by IC50: at least 40 µM for the first, at least 40 µM for the second.

CN(Cc1ccco1)C(=O)c1ccc(C(=O)Nc2ccc(-n3cncn3)cc2)s1 [Compound 102] and O=C(NCc1ccc2c(c1)CCO2)c1ccc(C(=O)Nc2ccc(-n3cncn3)cc2)s1 [Compound 115] cannot be ordered by IC50: at least 40 µM for the first, at least 40 µM for the second.

O=C(NCCc1c[nH]cn1)c1ccc(C(=O)Nc2ccc(-n3cncn3)cc2)s1 [Compound 103] and Cn1cnc(CCNC(=O)c2ccc(C(=O)Nc3ccc(-n4cncn4)cc3)s2)c1 [Compound 143] cannot be ordered by IC50: at least 40 µM for the first, at least 40 µM for the second.

O=C(Nc1ccc(-n2cncn2)cc1)c1ccc(C(=O)N[C@@H]2CC3CCC2C3)s1 (stereo partly shown) [Compound 104] and O=C(Nc1ccc(-n2cncn2)cc1)c1ccc(C(=O)NC2CCNCC2)s1 [Compound 139] cannot be ordered by IC50: at least 40 µM for the first, at least 40 µM for the second.

Cc1cc(CNC(=O)c2ccc(C(=O)Nc3ccc(-n4cncn4)cc3)s2)no1 [Compound 105] and Cc1cnc(CNC(=O)c2ccc(C(=O)Nc3ccc(-n4cncn4)cc3)s2)cn1 [Compound 111] cannot be ordered by IC50: at least 40 µM for the first, at least 40 µM for the second.

O=C(NCC1CCCCC1)c1ccc(C(=O)Nc2ccc(-n3cncn3)cc2)s1 [Compound 106] and O=C(NC[C@@H]1CCNC1)c1ccc(C(=O)Nc2ccc(-n3cncn3)cc2)s1 [Compound 138] cannot be ordered by IC50: at least 40 µM for the first, at least 40 µM for the second.

COc1ccccc1NC(=O)c1ccc(C(=O)Nc2ccc(-n3cncn3)cc2)s1 [Compound 110] and COc1ccc(NC(=O)c2ccc(C(=O)Nc3ccc(-n4cncn4)cc3)s2)cc1OC [Compound 151] cannot be ordered by IC50: at least 40 µM for the first, at least 40 µM for the second.

O=C(Nc1ccc(-n2cncn2)cc1)c1ccc(C(=O)N[C@@H]2CCc3ccccc32)s1 [Compound 113] and O=C(Nc1ccc(-n2cncn2)cc1)c1ccc(C(=O)NC2Cc3ccccc3C2)s1 [Compound 114] cannot be ordered by IC50: at least 40 µM for the first, at least 40 µM for the second.

O=C(Nc1ccc(-n2cncn2)cc1)c1ccc(C(=O)N2CCCC(c3ccccc3)C2)s1 (stereo not shown) [Compound 116] and COc1cccc(C2CCN(C(=O)c3ccc(C(=O)Nc4ccc(-n5cncn5)cc4)s3)C2)c1 (stereo not shown) [Compound 119] cannot be ordered by IC50: at least 40 µM for the first, at least 40 µM for the second.

O=C(Nc1ccc(-n2cncn2)cc1)c1ccc(C(=O)N2CCN(c3ccccc3)CC2)s1 [Compound 117] and CN1CCN(C(=O)c2ccc(C(=O)Nc3ccc(-n4cncn4)cc3)s2)CC1 [Compound 137] cannot be ordered by IC50: at least 40 µM for the first, at least 40 µM for the second.

NS(=O)(=O)c1ccc(NC(=O)c2ccc(C(=O)Nc3ccc(-n4cncn4)cc3)s2)cc1 [Compound 118] and Cc1cc(NC(=O)c2ccc(C(=O)Nc3ccc(-n4cncn4)cc3)s2)ccc1F [Compound 142] cannot be ordered by IC50: at least 40 µM for the first, at least 40 µM for the second.

COc1ccc(NC(=O)c2ccc(C(=O)Nc3ccc(N4CCOCC4)cc3)s2)c(C)c1 [Compound 120] and COc1ccc(NC(=O)c2ccc(C(=O)Nc3ccc(N4CCCCC4)cc3)s2)c(C)c1 [Compound 121] cannot be ordered by IC50: at least 40 µM for the first, at least 40 µM for the second.

COc1ccc(NC(=O)c2ccc(C(=O)Nc3ccc(N4CCNCC4)cc3)s2)c(C)c1 [Compound 122] and COc1ccc(NC(=O)c2ccc(C(=O)Nc3ccc(N4CCN(C)CC4)cc3)s2)c(C)c1 [Compound 123] cannot be ordered by IC50: at least 40 µM for the first, at least 40 µM for the second.

COc1ccc(NC(=O)c2ccc(C(=O)Nc3ccc(N(C)C)cc3)s2)c(C)c1 [Compound 124] and COc1ccc(NC(=O)c2ccc(C(=O)Nc3ccc(OCCN(C)C)cc3)s2)c(C)c1 [Compound 125] cannot be ordered by IC50: at least 40 µM for the first, at least 40 µM for the second.

COC(=O)c1ccc(NC(=O)c2ccc(C(=O)Nc3ccc(OC)cc3C)s2)cc1 [Compound 126] and COc1ccc(NC(=O)c2ccc(C(=O)Nc3ccc(CN)cc3)s2)c(C)c1 [Compound 132] cannot be ordered by IC50: at least 40 µM for the first, at least 40 µM for the second.

COc1ccc(NC(=O)c2ccc(C(=O)Nc3ccc(-c4csnn4)cc3)s2)c(C)c1 [Compound 127] and COc1ccc(NC(=O)c2ccc(C(=O)Nc3ccc(-c4cnco4)cc3)s2)c(C)c1 [Compound 131] cannot be ordered by IC50: at least 40 µM for the first, at least 40 µM for the second.

COc1ccc(NC(=O)c2ccc(C(=O)Nc3ccc(-n4cccn4)cc3)s2)c(C)c1 [Compound 129] and COc1ccc(NC(=O)c2ccc(C(=O)Nc3cccc(-c4cnco4)c3)s2)c(C)c1 [Compound 134] cannot be ordered by IC50: at least 40 µM for the first, at least 40 µM for the second.

COc1ccc(NC(=O)c2ccc(C(=O)Nc3ccc4c(c3)OCO4)s2)c(C)c1 [Compound 130] and O=C(Nc1ccc(-n2cncn2)cc1)c1ccc(C(=O)Nc2ccc3c(c2)OCO3)s1 [Compound 148] cannot be ordered by IC50: at least 40 µM for the first, at least 40 µM for the second.

O=C(Nc1ccc(-n2cncn2)cc1)c1ccc(C(=O)N[C@@H]2CCNC2)s1 [Compound 136] and CN1CCC(NC(=O)c2ccc(C(=O)Nc3ccc(-n4cncn4)cc3)s2)CC1 [Compound 141] cannot be ordered by IC50: at least 40 µM for the first, at least 40 µM for the second.

O=C(NCCN1CCCCC1)c1ccc(C(=O)Nc2ccc(-n3cncn3)cc2)s1 [Compound 144] and O=C(NCCN1CCOCC1)c1ccc(C(=O)Nc2ccc(-n3cncn3)cc2)s1 [Compound 147] cannot be ordered by IC50: at least 40 µM for the first, at least 40 µM for the second.

CN1CCCC1CCNC(=O)c1ccc(C(=O)Nc2ccc(-n3cncn3)cc2)s1 (stereo not shown) [Compound 145] and O=C(NCCN1CCNC1=O)c1ccc(C(=O)Nc2ccc(-n3cncn3)cc2)s1 [Compound 146] cannot be ordered by IC50: at least 40 µM for the first, at least 40 µM for the second.

O=C(Nc1ccc(-n2cncn2)cc1)c1ccc(C(=O)N2CCCC2c2cccnc2)s1 (stereo not shown) [Compound 150] and O=C(Nc1ccc(-n2cncn2)cc1)c1ccc(C(=O)N2CCN(C3CCCC3)CC2)s1 [Compound 152] cannot be ordered by IC50: at least 40 µM for the first, at least 40 µM for the second.
